Measurements reported in US5965699A (priority 1996, dated 1999).
Where a SMILES comes first, the peptide text is derived from it. [ ]: non-standard residue; d: D form. Abu = CC[C@H](N)C(=O)O

Columns and labels:
[1] = biological target: T1, botox A (Clostridium botulinum, UniProt P0DPI1); test: biochemical; settings: for inhibition at 1000 µM: read-out: inhibition of hydrolysis of peptide [1-17]
[2] = biological target: T1, botox A; format: biochemical; settings: for kcat: in 1/s; for Km: read-out: Km
[3] = biological target: T1, botox A

T1 sequence (P0DPI1 2-448 limits assumed): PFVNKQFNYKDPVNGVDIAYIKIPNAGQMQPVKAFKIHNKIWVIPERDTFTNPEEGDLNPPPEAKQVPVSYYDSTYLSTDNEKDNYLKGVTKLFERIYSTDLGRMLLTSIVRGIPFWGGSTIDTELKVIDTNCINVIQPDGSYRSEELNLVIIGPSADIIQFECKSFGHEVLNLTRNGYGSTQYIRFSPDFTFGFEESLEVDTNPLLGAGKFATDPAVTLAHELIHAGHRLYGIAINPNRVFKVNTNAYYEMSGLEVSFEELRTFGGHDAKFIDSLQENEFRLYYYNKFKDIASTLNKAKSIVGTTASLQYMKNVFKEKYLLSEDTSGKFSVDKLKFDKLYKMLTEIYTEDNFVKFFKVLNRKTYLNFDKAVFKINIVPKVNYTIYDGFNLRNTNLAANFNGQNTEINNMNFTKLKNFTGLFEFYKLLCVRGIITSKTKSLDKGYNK

| Molecule | Relative Rate (initial hydrolysis rates relative to peptide [1-17]) [2] | hydrolysis by botox A, described in words [2] | kcat [2] | effect on hydrolysis of substrate peptides by botox A [3] | Km [2] [µM] | further results |
| --- | --- | --- | --- | --- | --- | --- |
| Ac-SNKTRIDEANQRATK-NH2 [[1-15], S N K T R I D E A N Q R A T K] | 0.03 | very slow rate of hydrolysis | ~1.0 |  |  | inhibition at 1000 µM [1]: 17%; kcat as percent of that for peptide [1-17] [2]: 2-3% |
| ovalbumin |  |  |  | no effect |  |  |
| gelatin |  |  |  | no effect |  |  |
| Ac-SNKTRIDEAAQRATKML-NH2 [N10A, S N K T R I D E A A Q R A T K M L] |  | only very slowly cleaved | 1.8 ± 0.1 |  |  | inhibition at 1000 µM [1]: 30%; kcat as percent of that for peptide [1-17] [2]: about 4% |
| CC[C@H](NC(=O)[C@H](CCCNC(=N)N)NC(=O)[C@H](CCC(N)=O)NC(=O)[C@H](CC(N)=O)NC(=O)[C@H](C)NC(=O)[C@H](CCC(=O)O)NC(=O)[C@H](CC(=O)O)NC(=O)[C@@H](NC(=O)[C@H](CCCNC(=N)N)NC(=O)[C@@H](NC(=O)[C@H](CCCCN)NC(=O)[C@H](CC(N)=O)NC(=O)[C@H](CO)NC(C)=O)[C@@H](C)O)[C@@H](C)CC)C(=O)N[C@H](C(=O)N[C@@H](CCCCN)C(=O)N[C@@H](CCSC)C(=O)N[C@@H](CC(C)C)C(N)=O)[C@@H](C)O [A13B, S N K T R I D E A N Q R B T K M L] (Ac-SNKTRIDEANQR[Abu]TKML-NH2) | .79 |  | 39 ± 2 |  | 1800 ± 100 |  |
| Ac-SNKTRIDQANQRATKML-NH2 [E8Q, S N K T R I D Q A N Q R A T K M L] | 2.08 | doubling of the rate of hydrolysis | 51 ± 3 |  | 750 ± 40 | decrease in Km compared with peptide [1-17] [2]: about 50% |
| ribonuclease |  |  |  | no effect |  |  |
| Ac-SNKTRIDEANQRLTKML-NH2 [A13L, S N K T R I D E A N Q R L T K M L] |  | below the limits of detection |  |  |  | Ki [1]: 1 to 2 mM; inhibition at 1000 µM [1]: 30% |
| Ac-SNKTRIDEANQRATAML-NH2 [K15A, S N K T R I D E A N Q R A T A M L] |  | significantly lower hydrolysis rate | ~8.0 |  | ~1000 |  |
| Ac-SNKTRINEANQRATKML-NH2 [D7N, S N K T R I N E A N Q R A T K M L] | 0.23 |  | 5.0 ± 0.3 |  | 820 ± 60 | kcat as percent of that for peptide [1-17] [2]: about 10% |
| lysozyme |  |  |  | no effect |  |  |
| Ac-SNKTRIDEANARATKML-NH2 [Q11A, S N K T R I D E A N A R A T K M L] | 0.19 | slowed but did not eliminate hydrolysis |  |  |  |  |
